Results from patent US9623077B2, “Use of peptide for alleviating pain” (Academia Sinica, priority 2015, dated 2017).
Where no end group is shown, it is not given here.

Legend:
[1] = test system: CCI rats; assay type: in vivo, rat; settings: i.t. administration, from peak effects of % MPE
Experimental: Implantation of i.t. catheters in rats was performed.
Thermal hyperalgesia was examined using an IITC analgesiometer (IITC Inc., Woodland Hills, Calif., USA). […] Paw withdrawal latency (PWL) in seconds was measured with a cutoff time of 30 seconds. PWL was recorded at 30, 60, 90, 120, 150, and 180 minutes after PCD-1 or gabapentin injection. PWL (s) was transformed to a percentage of the maximum possible effect (% MPE) using the following formula: % MPE=(post-drug latency−baseline)/(cutoff−baseline)×100%, where the post-drug latency was the response measured at 0, 30, 60, 90, 120, 150, or 180 minutes after injection of PCD-1, gabapentin, or vehicle. The baseline was the response measured immediately prior to i.t. injection, and the cutoff time was 30 seconds.

[2] = test system: CCI rats
Experimental: The rat model of chronic constriction injury (CCI) was performed by following the previous reports or research. Implantation of i.t. catheters in rats was performed. The i.t. catheters (PE5 tubes: 9-cm long, 0.008-inch inner diameter, 0.014-inch outer diameter; Spectranetics, Colorado Springs, Colo., USA) were inserted via the atlanto-occipital membrane into the i.t. space at the level of the lumbar enlargement of the spinal cord, and externalized and fixed to the cranial aspect of the head. Five days after i.t. catheterization, CCI or mononeuropathy was induced by following a previous report. The 5-mm-long nerve segment of right sciatic nerve at the mid-thigh level was isolated from the surrounding tissues. Four ligatures (4-0 chromic gut) were loosely tied around the sciatic nerve with 1-mm intervals, and the wound was closed with sutures.
The narrow beam used in the present invention was a wooden beam 80 cm in length and 2.5 cm in width, suspended 100 cm from the ground by wooden supports at either end. Foam padding (1 m wide and approximately 12 cm thick) was placed beneath the beam to prevent injury to the rat in case of a fall. The cutoff time to cross the beam was 15 seconds for each rat. Rats were pre-trained before the test.

[3] = test system: RAW264.7 cells; parameters: dose or concentration left out as unconfirmed; settings: PCD-1 for 24 h
Experimental: (A) RAW264.7 cells are treated with the indicated doses of PCD-1 for 24 h, and cell viability is then measured by Alamar blue assay to assess cytotoxicity.
In order to investigate regulation of iNOS and COX-2 by PCD-1, mouse macrophage and immune cells were treated with non-cytotoxic doses of PCD-1, and the effects on protein expression were examined.

[4] = test system: rats; settings: rats treated with PCD-1

Molecule	median effective dose (ED50) for anti-thermal hyperalgesia [1] [µg]	latency to initiate crossing and total time to cross the beam ([2]; CCI rats+PCD-1 (20 μg) vs CCI rats+vehicle, 0 to 480 minutes)	locomotor function ([2]; rats, i.t. 20 μg)	Proliferation of RAW264.7 cells (cell viability, Alamar blue) [3]	alterations of external behavior [4]
NCC1(CC(=O)O)CCCCC1 [gabapentin, reference compound]	2.3 ± 1.5	–	–	–	–
FFHHIFRGIVHVGKTIHRLVTG [PCD-1, Piscidin-1] [listing 1 of 2 here]	9.5 ± 3.2	–	–	–	–
FFHHIFRGIVHVGKTIHRLVTG [PCD-1, Piscidin-1] [listing 2 of 2 here]	–	No significant differences	did not affect	unaffected	nor did it result in any obvious alterations
